Measured values: the supplement of paper PMC10307832

What was measured:
Assay in all cases: relative viability (nuclei count vs DMSO), 5 days (fraction); higher = more cells survive
TPCA-1 + Linsitinib = compound: C1=CC(=CC=C1C2=CC(=C(S2)NC(=O)N)C(=O)N)F [TPCA-1] + C[C@]1(O)C[C@@H](c2nc(-c3ccc4ccc(-c5ccccc5)nc4c3)c3c(N)nccn32)C1 [Linsitinib] (partner 1 µM)
Method in brief: (§1)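 Lung cancer cell lines were pin-tool dosed in 1536-well plates on the day after seeding, with either a lone drug or a fixed anchor-drug dose plus five library-drug doses (not always all listed) in √10 steps. Nuclei were counted on 4× images after 5 days. Relative viability is the ratio of treated-well to vehicle-well nuclei counts, with each value a median of duplicate plates.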

[1] = compound: C[C@]12O[C@H](C[C@]1(O)CO)n1c3ccccc3c3c4c(c5c6ccccc6n2c5c31)CNC4=O [Lestaurtinib] + N=C(N)NC(=N)NCCc1ccccc1 [Phenformin] (partner 250 µM)
Method in brief: as §1

[2] = compound: C1/C(=C\C2=CC=CS2)/C(=O)/C(=C/C3=CC=CS3)/C1 + Cc1cc(Nc2cc(N3CCN(C)CC3)nc(Sc3ccc(NC(=O)C4CC4)cc3)n2)n[nH]1 [Tozasertib] (partner 0.1 µM)
Method in brief: as §1

[3] = compound: C1/C(=C\C2=CC=CS2)/C(=O)/C(=C/C3=CC=CS3)/C1 + O=C(CCCCCCC(=O)Nc1ccccc1)NO [Vorinostat] (partner 1 µM)
Method in brief: as §1

| Cell Line | relative viability (TPCA-1 + Linsitinib; first compound 0.04 µM) | relative viability (TPCA-1 + Linsitinib; first compound 0.1265 µM) | relative viability (TPCA-1 + Linsitinib; first compound 0.4 µM) | relative viability (TPCA-1 + Linsitinib; first compound 1.265 µM) | relative viability (TPCA-1 + Linsitinib; first compound 4 µM) | relative viability ([1]; first compound 0.005 µM) | relative viability ([1]; first compound 0.01581 µM) | relative viability ([1]; first compound 0.05 µM) | relative viability ([1]; first compound 0.1581 µM) | relative viability ([1]; first compound 0.5 µM) | relative viability ([2]; first compound 0.2 µM) | relative viability ([2]; first compound 0.6325 µM) | relative viability ([2]; first compound 2 µM) | relative viability ([2]; first compound 6.325 µM) | relative viability ([2]; first compound 20 µM) | relative viability ([3]; first compound 0.2 µM) | relative viability ([3]; first compound 0.6325 µM) | relative viability ([3]; first compound 2 µM) | relative viability ([3]; first compound 6.325 µM) | relative viability ([3]; first compound 20 µM) |
| --- | --- | --- | --- | --- | --- | --- | --- | --- | --- | --- | --- | --- | --- | --- | --- | --- | --- | --- | --- | --- |
| 201T | 1.03 | 0.982 | 1.09 | 1.09 | 0.835 | 0.467 | 0.491 | 0.363 | 0.418 | 0.278 | 0.959 | 0.968 | 1 | 0.897 | 0.911 | 0.965 | 0.951 | 1.07 | 0.728 | 0.935 |
| A549 | 0.627 | 0.567 | 0.638 | 0.469 | 0.314 | 0.204 | 0.141 | 0.16 | 0.1 | 0.045 |  |  |  |  |  |  |  |  |  |  |
| A-427 | 1.13 | 1.06 | 1.17 | 1.09 | 1.12 | 0.339 | 0.3 | 0.23 | 0.225 | 0.149 | 0.185 | 0.22 | 0.248 | 0.176 | 0.216 | 0.884 | 0.838 | 0.855 | 0.828 | 0.89 |
| ABC-1 | 0.936 | 0.714 | 0.662 | 0.579 | 0.524 | 0.251 | 0.252 | 0.243 | 0.199 | 0.166 | 0.182 | 0.17 | 0.195 | 0.195 | 0.218 | 1.17 | 0.964 | 1.5 | 0.724 | 1.24 |
| BEN | 0.973 | 0.728 | 1 | 0.877 | 0.692 | 0.292 | 0.316 | 0.267 | 0.237 | 0.196 | 0.474 | 0.506 | 0.506 | 0.52 | 0.6 | 0.64 | 0.537 | 0.661 | 0.566 | 0.535 |
| CAL-12T | 0.868 | 0.754 | 0.73 | 0.763 | 0.411 | 0.488 | 0.622 | 0.375 | 0.32 | 0.189 | 0.334 | 0.32 | 0.356 | 0.256 | 0.309 | 0.724 | 0.91 | 0.648 | 0.77 | 0.788 |
| COR-L23 | 1.01 | 0.771 | 0.975 | 0.821 | 0.565 | 0.527 | 0.551 | 0.256 | 0.327 | 0.14 | 0.223 | 0.203 | 0.197 | 0.185 | 0.193 | 0.475 | 0.597 | 0.477 | 0.348 | 0.451 |
| COR-L 105 | 0.959 | 1.03 | 0.801 | 0.862 | 0.781 | 0.465 | 0.476 | 0.371 | 0.353 | 0.238 | 0.337 | 0.33 | 0.316 |  | 0.407 | 0.653 | 0.969 | 0.852 | 0.391 | 0.669 |
| Calu-6 | 1.15 | 0.941 | 0.962 | 0.847 | 0.68 |  |  |  |  |  |  |  |  |  |  |  |  |  |  |  |
| ChaGo-K-1 |  |  |  |  |  | 0.484 | 0.447 | 0.448 | 0.333 | 0.275 | 0.241 | 0.235 | 0.259 | 0.212 | 0.197 | 0.761 | 0.749 | 0.703 | 0.511 | 0.254 |
| EBC-1 | 1.06 | 0.825 | 0.815 | 0.844 | 0.814 |  |  |  |  |  |  |  |  |  |  |  |  |  |  |  |
| EKVX | 1.1 | 0.868 | 1.08 | 0.69 | 0.846 | 0.207 | 0.245 | 0.231 | 0.244 | 0.239 | 0.405 | 0.452 | 0.329 | 0.424 | 0.394 | 0.893 | 0.625 | 0.873 |  | 0.678 |
| EMC-BAC-2 | 0.848 | 0.739 | 0.822 | 0.837 | 0.66 | 0.476 | 0.567 | 0.424 | 0.364 | 0.26 | 0.267 | 0.339 | 0.298 | 0.293 | 0.48 | 0.351 | 0.473 | 0.453 | 0.455 | 0.489 |
| EPLC-272H | 1.3 | 1.09 | 1.33 | 1.03 | 1.01 | 0.273 | 0.306 | 0.281 | 0.225 | 0.125 | 0.293 | 0.325 | 0.322 | 0.283 | 0.287 | 0.464 | 0.384 | 0.615 | 0.318 | 0.358 |
| H3255 | 1.06 | 0.826 | 0.95 | 0.866 | 0.708 | 0.313 | 0.315 | 0.379 | 0.286 | 0.294 | 0.714 | 0.617 | 0.566 | 0.537 | 0.546 | 0.756 | 0.856 | 0.427 | 0.758 | 0.875 |
| HARA | 0.916 | 0.856 | 1.05 | 0.924 | 0.804 | 0.507 | 0.477 | 0.369 | 0.358 | 0.251 | 0.121 | 0.123 | 0.116 | 0.101 | 0.0981 | 0.722 | 0.498 | 0.641 | 0.485 | 0.458 |
| HCC-15 | 0.951 | 0.886 | 0.82 | 0.895 | 0.802 | 0.538 | 0.55 | 0.334 | 0.305 | 0.132 | 0.422 | 0.497 | 0.367 | 0.397 | 0.357 | 0.876 | 0.846 | 0.842 | 0.772 | 0.743 |
| HCC-44 | 0.608 | 0.63 | 0.705 | 0.656 | 0.666 | 0.194 | 0.193 | 0.173 | 0.283 | 0.185 | 1.04 | 0.609 | 0.928 | 0.837 | 0.923 | 1.09 | 1.08 | 1.01 | 0.995 | 1.03 |
